Measurements published in PubChem BioAssay (NCI).
Values joined by “and” are separate entries in the source; they are usually repeats but may differ in a detail not shown here. Equal entries are not always repeated.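 Where inhibition never reached the appropriate level, the endpoint shown equals the highest concentration tested. Otherwise, values were interpolated linearly from a five-concentration, 48-hour dose response in 96-well plates. At the GI50, growth is halved. TGI denotes the concentration required for complete inhibition of growth.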

Assays:
Experiment in all cases: NCI-60 cell line screen, 48 h
[1] = test system: A549 NSCLC
[2] = test system: BT-549 breast
[3] = test system: EKVX NSCLC
[4] = test system: HCT-15 colon
[5] = test system: HOP-62 NSCLC
[6] = test system: HT29 colon
[7] = test system: KM12 colon
[8] = test system: SK-OV-3 ovarian
[9] = test system: SNB-75 CNS
[10] = test system: SR leukemia

Compound | GI50 [1] [µM] | TGI [1] | GI50 [2] [µM] | TGI [2] | GI50 [3] [µM] | TGI [3] [µM] | GI50 [4] | TGI [4] | GI50 [5] [µM] | TGI [5] | GI50 [6] [µM] | TGI [6] | GI50 [7] [µM] | TGI [7] | GI50 [8] [µM] | TGI [8] [µM] | GI50 [9] [µM] | TGI [9] [µM] | GI50 [10] [µM] | TGI [10] [µM]
CCC(=C(c1ccc(OCCCN(C)C)cc1)c1ccc(OCCCN(C)C)cc1)c1ccc(Cl)cc1 | 0.601 | 2.46 µM | 2.54 | 4.94 µM | 2.43 | 4.9 | 0.365 µM | 0.864 µM | 2.31 | 5.1 µM | 0.395 | 0.966 µM | 1.26 | 3.43 µM | 2.81 | 5.36 | 1.56 | 3.89 | 0.288 | 0.716
C[C@H](Cn1ncnn1)Nc1ncc2cc(Oc3ccc(F)cc3F)c(=O)n(C)c2n1 | > 25 | > 25 µM | > 25 | > 25 µM |  |  | > 25 µM | > 25 µM | > 25 | > 25 µM | > 25 | > 25 µM | > 25 | > 25 µM | > 25 | > 25 | > 25 | > 25 | > 25 | > 25
CN(C)Cc1c[nH]c2c(NCCN)c3c(c(NCCN)c12)C(=O)c1ccccc1C3=O | 3.39 | 16.2 µM | 3.52 | 9.87 µM | 2.9 | 9.36 | 6.97 µM | 20 µM | 1.31 | 6.39 µM | 3.65 | 26.5 µM | 1.59 | 7.11 µM | 8.67 | 24.1 | 6.13 | 17 |  | > 100
c1ccc2nc3c(cc4ccccn43)nc2c1 | 77.4 | > 100 µM | > 100 | > 100 µM | 18.9 | > 100 | 73.4 µM | > 100 µM | 18.9 | 74.1 µM | > 100 | > 100 µM | 26.6 | > 100 µM | 97.4 | > 100 |  |  | 52.5 | > 100
COc1ccc(CC(C)C(C)Cc2ccc(OC)c(OC)c2)cc1OC (configuration not stated) | 600 | > 1400 µM | > 1400 | > 1400 µM | 986 | > 1400 | > 1400 µM | > 1400 µM | 750 | > 1400 µM | > 1400 | > 1400 µM | > 1400 | > 1400 µM | > 1400 | > 1400 | > 1400 | > 1400 | 915 | > 1400
NC(=O)c1cccc(Nc2nccc(Nc3cccc(F)c3)n2)c1 | 7.45 | > 25 µM | 10.3 | > 25 µM | 12.3 | > 25 | 7.69 µM | > 25 µM | 8.24 | > 22.5 µM | 6.98 | > 25 µM | 7.27 | > 25 µM | 5.85 | 17.2 | 6.22 | > 23.4 | 7.1 | > 25
COc1ccccc1/C=C/C(=O)/C=C/c1ccccc1O | 1.27 | 3.73 µM | 1.39 | 3.01 µM | 1.75 | 5.63 | 0.351 µM | 1.64 µM | 3.06 | 6.63 µM | 0.853 | 2.75 µM | 0.369 | 1.5 µM | 2.05 | 5.6 | 0.964 | 2.57 | 0.39 | > 100
Cc1cc(Nc2nc(SCc3ccc(C(=O)Nc4ccc(F)cc4N)cc3)nn3cccc23)n[nH]1 | 0.886 | 36.8 µM | 0.296 | 7 µM | 0.919 | 55.9 | 0.424 µM | > 100 µM | 0.556 | > 100 µM | 0.322 | 10.1 µM | 0.284 | 10.3 µM | 0.339 | 4.61 | 0.198 | 35.4 | 0.068 | 63.1
Cc1cc2c(Br)cc(Br)c(O)c2nc1C(=O)c1ccccc1 |  | > 100 µM |  | > 100 µM |  | > 100 |  | > 45.5 µM |  | > 31.6 µM |  | > 79.1 µM |  | > 100 µM |  |  |  | > 100 |  | > 100
CC(=O)N[C@H](C(=O)N[C@@H](CCCNC(=N)N)C(=O)N[C@@H](CCCCN)C(=O)N[C@@H](CCCNC(=N)N)C(=O)N[C@]1(C)CCCCCC/C=C\CCC[C@@](C)(C(=O)N[C@@H](CCCNC(=N)N)C(=O)N[C@@H](CCC(=O)O)C(=O)N[C@@H](CC(C)C)C(=O)N[C@H](C(=O)N[C@@H](CCC(=O)O)C(N)=O)C(C)C)NC(=O)[C@H](CCC(N)=O)NC(=O)[C@H](CC(C)C)NC(=O)[C@H](CC(C)C)NC(=O)[C@H](CCCNC(=N)N)NC(=O)[C@H](CCCNC(=N)N)NC(=O)[C@H](CC(C)C)NC1=O)C(C)C | 3.4 | 27.6 µM | 1.44 | 4.35 µM | 1.75 | 23.2 | 3.02 µM | 47.3 µM | 2.35 | 22.5 µM | 7.91 | 41.3 µM | 1.3 | 3.77 µM | 3.72 | 27.7 | 1.99 | 13.1 |  | 
CCSc1nc(N)c2cn[nH]c2n1 | 44.6 | > 100 µM | 52.1 | > 100 µM | 51.4 | > 100 | 41.7 µM | > 100 µM | 49 | > 100 µM | 29.4 | 81.9 µM | 22 | 59.6 µM | 42.1 | > 100 |  |  | 7.63 | 39.6
CCC1=C[C@@H]2CN(C1)Cc1c([nH]c3ccccc13)[C@@](C(=O)OC)(c1cc3c(cc1OC)N(C)[C@H]1[C@@](O)(C(=O)OC)[C@H](OC(C)=O)[C@]4(CC)[C@@H]5C[C@@H]5CN5CC[C@]31[C@@H]54)C2 | < 0.005 | 5.95 µM and 12.2 µM |  | 3.46 µM and 17.5 µM |  |  | 0.0162 µM and 0.0881 µM | 6.21 µM and 16 µM | < 0.005 | 6.94 µM and 16.7 µM | < 0.005 | 0.8 µM and 1.06 µM | < 0.005 | 6.54 µM and 11.1 µM | < 0.005 |  |  | 11 | < 0.005 | 
c1ccc(Cn2cnc3ccc(-c4nc(-c5ccc6c(c5)ncn6C5CCCCC5)cn5ccnc45)cc32)cc1 | 2.33 | 4.97 µM | 1.2 | 2.68 µM |  |  |  |  |  |  |  |  | 2.08 | 4.93 µM |  |  |  |  | 1.68 | > 100
